Source: US20250241890A1, “1,4-DIUREAS AND 1,4-DITHIOUREAS AND USES THEREOF” (Purdue Research Foundation, priority 2024, published 2025)

Biological target: T1, α-synuclein (α-syn) (Homo sapiens, UniProt P37840)
T1 construct: purchased rPeptide (Watkinsville, GA)
Assay: PICUP assay of α-syn oligomer formation
Assay type: biochemical
Details: α-syn 60 μM, compound 50 μM (~molar ratio 1:1)
Method: Chemical and peptide source. Dimethylsulfoxide (DMSO) and thioflavin-T (ThT) were purchased from Alfa Aesar (Ward Hill, MA). Recombinant α-synuclein (α-syn) was procured from rPeptide (WatKinsville, GA). The recombinant p-tau isoform 1N4R was prepared as published previously (Fortin et al. 2021, Sui et al. 2015, Liu et al. 2020). Concerning the preparation of tau 0N4R, a bacterial expression plasmid consisting of the vector pET30a carrying a cDNA encoding the human Tau 0N4R isoform was a kind gift of Dr. Benjamin Wolozin (Boston University). E. coli stock (Rosetta BL21 E. coli (CamR) containing pET30a [0N4R tau wt] (KanR)) was grown in LB medium supplemented with kanamycin (50 μg/mL) and chloramphenicol (50 μg/mL). Protein over-expression was induced by the addition of 1 mM IPTG for ˜18 hours at 37° C., and cells were pelleted by centrifugation at 6,000 g for 15 minutes at 4° C. The cells were resuspended in lysis buffer (10 mM Hepes, pH 7.4, 50 mM NaCl, 1 mM MgCl2, 1 mM PMSF, 1× PIC, and 0.5 mM DTT) and lysed by sonication at 30 seconds “On” and 1 minute “Off” at ˜30-45% power for ˜3-5 minutes. Lysate was centrifuged at 10,000 rpm for 10 minutes at 4° C., and supernatant was transferred with 7.8 ml (total) of 3M NaCl. The lysate was incubated for 10 minutes in 80° C. water bath, then cooled for 10 minutes in an ice bath. The lysate was centrifuged at 10,000 rpm at 4° C. for 10 minutes, and the supernatant was transferred to a new tube. The supernatant was dialyzed overnight against cation exchange buffer (50 mM MES, […], 1 mM DTT, pH 6.0). The dialysate was loaded onto a HiPrep SP HP column, and proteins were eluted with a linear gradient ranging from 50 mM to 1 M NaCl. General Characterizations. ^1H and ^13C {1H} NMR spectra were recorded using a 500 MHz Bruker instrument working at a frequency of 500 MHz for ^1H and at 126 MHz for ^13C. Chemical shifts are reported in ppm using residual solvent resonances as internal reference (δ 2.50 and δ 39.51 for ^1H and ^13C in DMSO-d6, respectively). ^1H NMR data are reported as follows. b=broad, s=singlet, d=doublet, t=triplet, q=quartet, and m=multiplet. Coupling constants are given in hertz. The purity of all compounds and synthetic intermediates was judged to be 95% or better based on ^1H NMR. IR measurements were performed in a Nicolet FTIR as thin films in the Purdue Drug Discovery facility. High-resolution mass spectrometry analyses were conducted at the MSU Mass Spectrometry facility. Thioflavin fluorescence assays. Thioflavin fluorescence assays were used to monitor fibril formation of commercial recombinant α-syn at a final concentration of 2 μM and treated with control DMSO and different compounds. The recombinant α-syn obtained from rPeptide has been validated with proper quality control to confirm the monomeric state of the protein. Kinetics of fibril formation have been performed using ThT as published previously.^6, 12, 13, 24 The fluorescence emission experiments were performed with the excitation and emission wavelengths set at 440 and 485 nm, respectively, with a Synergy HT multi-mode microplate reader (BioTek, Winooski, VT). Samples were measured in three replicates. Experiments were repeated three times using different α-syn stock solutions. For each time point, arbitrary units of fluorescence were calculated from the mean values normalized against the maximum value. The percentage of fluorescence intensity at the plateau phase in Table 1 was expressed as mean #SEM. Concerning the dose response curve depicted in FIG. 2, the data were plotted using GraphPad Prism. Photo-induced Cross-linking of Unmodified Proteins (PICUP) Assay. […] Different compounds were added to the protein solution at a final concentration of 50 μM, resulting in a molar ratio of 1:1. PICUP assays were performed with the following controls: samples without light exposition, without Ru(bpy) or ammonium persulfate, and without compound (i.e., 0.125% DMSO). […]

| SMILES | effect on α-syn oligomer formation (high molecular weight bands) by PICUP | percentage of oligomer reduction (PICUP, relative pixel density) |
| --- | --- | --- |
| S=C(Nc1ccc(NC(=S)Nc2cccc3cc[nH]c23)cc1)Nc1cccc2cc[nH]c12 [Compound 8, 3-(1H-indol-7-yl)-1-(4-{[(1H-indol-7-yl)carbamothioyl]amino}phenyl)thiourea] | reduced α-syn oligomer formation | 91.2% |
| O=C(Nc1ccc(NC(=O)Nc2cccc3[nH]ccc23)cc1)Nc1cccc2[nH]ccc12 [Compound 1, 3-(1H-indol-4-yl)-1-(4-{[(1H-indol-4-yl)carbamoyl]amino}phenyl)urea] |  | 52.6% |
| S=C(Nc1ccc(NC(=S)Nc2cccc3[nH]ccc23)cc1)Nc1cccc2[nH]ccc12 [Compound 2, 3-(1H-indol-4-yl)-1-(4-{[(1H-indol-4-yl)carbamothioyl]amino}phenyl)thiourea] | reduced α-syn oligomer formation | 84.2% |
